From article PMC7734590, “Identification of a Selective RelA Inhibitor Based on DSE-FRET Screening Methods” (International Journal of Molecular Sciences, 2020)

Tests used:
Assay type in all cases: biochemical
RelA [1] = biological target: T1, RelA (Homo sapiens, UniProt Q04206); assay: DSE-FRET RelA–DNA binding inhibition
Experimental: (§1) Plate-based (384 scale) DNA-binding experiments were carried out with 0.1 µL of 2 mM or 1 mg/mL compound, 2 µL of 80 nM NF-D1 (consisting of NF-01F and NF-14D), 1 µL of 20 ng/µL poly dI-dC, and 6.9 µL of 3.2 pmol protein in binding buffer (10 mM 4-(2-hydroxyethyl)-1-piperazineethanesulfonic acid (HEPES)–NaOH pH 7.9, 50 mM KCl, 0.1 mM ethylenediaminetetraacetic acid (EDTA), 2.5 mM dithiothreitol (DTT), 10% glycerol, and 0.05% Nonidet P40). The plates were incubated for 30 min at room temperature, after which 10 µL of NF-D2 (consisting of NF-02 and NF-13) was added. The plates were centrifuged at 1000 rpm for 30 s, followed by shaking for 30 s using a plate shaker (Biotec). Fluorescence was measured at 528 nm, after excitation at 485 nm, using a multiplate reader (Biotec) over a period of 60 min.

p50 = biological target: T2, p50 (Homo sapiens, UniProt P19838); assay: DSE-FRET p50–DNA binding inhibition
T2 sequence (P19838 1-433 limits assumed): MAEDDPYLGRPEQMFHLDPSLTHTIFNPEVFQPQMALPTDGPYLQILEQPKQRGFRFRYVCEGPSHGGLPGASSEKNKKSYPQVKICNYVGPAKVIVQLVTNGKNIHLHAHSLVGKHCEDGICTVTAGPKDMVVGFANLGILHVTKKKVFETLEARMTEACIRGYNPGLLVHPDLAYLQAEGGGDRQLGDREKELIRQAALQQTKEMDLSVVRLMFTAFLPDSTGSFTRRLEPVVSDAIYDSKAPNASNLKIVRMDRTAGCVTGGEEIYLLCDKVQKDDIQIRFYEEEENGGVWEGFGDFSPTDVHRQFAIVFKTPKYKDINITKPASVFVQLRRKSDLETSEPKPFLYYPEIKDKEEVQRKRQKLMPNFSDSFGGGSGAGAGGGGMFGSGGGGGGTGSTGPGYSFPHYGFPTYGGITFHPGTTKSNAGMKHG
Experimental: as §1

RelA [2] = biological target: T1, RelA; assay: EMSA with recombinant RelA

T1 sequence (Q04206 19-306 limits assumed): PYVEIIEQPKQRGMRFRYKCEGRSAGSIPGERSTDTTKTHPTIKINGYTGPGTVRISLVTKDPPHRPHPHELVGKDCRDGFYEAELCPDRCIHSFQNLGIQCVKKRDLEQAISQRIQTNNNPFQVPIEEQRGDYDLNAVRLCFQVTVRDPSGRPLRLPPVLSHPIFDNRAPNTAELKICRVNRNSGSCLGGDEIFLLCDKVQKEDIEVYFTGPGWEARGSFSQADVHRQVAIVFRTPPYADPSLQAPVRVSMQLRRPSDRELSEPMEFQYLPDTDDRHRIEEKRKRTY

Cc1cc(O)n(CC(=O)O)c(=O)c1C(N)=O [A55, 2-(3-carbamoyl-6-hydroxy-4-methyl-2-oxopyridin-1(2H)-yl) acetic acid]
Hit Judgement of: RelA (RelA [1]; 2nd screening at 96 well plate, 1 = judged hit): 1
dose–response of RelA–DNA binding inhibition (RelA [1]; 2–10 µM): inhibited RelA–DNA binding in a concentration-dependent manner
ligand efficiency (LE) (RelA [1]; 16 heavy atoms): 0.44
RelA–DNA binding inhibition (RelA [1]; 96-well plate, in silico selected compounds): over 50%
RelA–DNA binding inhibition at 50 µM (RelA [1]; 96-well plates, 50 µM): inhibited only RelA–DNA binding
inhibition at 50 µM (RelA [1]; 96 well plate, 50 µM, 120 min-0 min, read-out: Kinetic assay @ 50 µM RelA Inhibition % ΔRFU(120 min-0 min)): 63%
IC50 (RelA [1]; DSE-FRET): 9.31 µM
IC50 (p50): > 100 µM
EMSA inhibition of RelA–DNA binding (RelA [2]): selectively inhibited the RelA–DNA binding
